Target: T1, human factor Xa (Homo sapiens, UniProt P00742)
T1 construct: human factor Xa (Enzyme Research Laboratories, Inc; South Bend, Indiana); purchased Enzyme Research Laboratories, Inc; South Bend, Indiana
Assay: Factor Xa chromogenic assay (inhibition of factor Xa activity)
Assay type: biochemical
Conditions: inhibition constant for factor Xa; chromogenic substrate S-2765 140 μM, enzyme 0.5 nM, 25° C.; Ki calculated from IC50; read-out: Ki(FXa)
Description: The ability of the compounds of the formulae I and Ia to inhibit factor Xa or factor VIIa or other enzymes like thrombin, plasmin, or trypsin can be assessed by determining the concentration of the compound of the formulae I and Ia that inhibits enzyme activity by 50%, i.e. the IC50 value, which was related to the inhibition constant Ki. Purified enzymes were used in chromogenic assays. The concentration of inhibitor that causes a 50% decrease in the rate of substrate hydrolysis was determined by linear regression after plotting the relative rates of hydrolysis (compared to the uninhibited control) versus the log of the concentration of the compound of formulae I and Ia. For calculating the inhibition constant Ki, the IC50 value was corrected for competition with substrate using the formula Ki=IC50/{1+(substrate concentration/Km)} wherein Km is the Michaelis-Menten constant (Chen and Prusoff, Biochem. Pharmacol. 22 (1973), 3099-3108; I. H. Segal, Enzyme Kinetics, 1975, John Wiley & Sons, New York, 100-125; which were incorporated herein by reference). a) Factor Xa Assay
In the assay for determining the inhibition of factor Xa activity TBS-PEG buffer (50 mM Tris-HCl, pH 7.8,200 mM NaCl, 0.05% (w/v) PEG-8000, 0.02% (w/v) NaN3) was used. The IC50 was determined by combining in appropriate wells of a Costar half-area microtiter plate 25 μl human factor Xa (Enzyme Research Laboratories, Inc.; South Bend, Indiana) in TBS-PEG; 40 μl 10% (v/v) DMSO in TBS-PEG (uninhibited control) or various concentrations of the compound to be tested diluted in 10% (v/v) DMSO in TBS-PEG; and substrate S-2765 (N(α)-benzyloxycarbonyl-D-Arg-Gly-L-Arg-p-nitroanilide; Kabi Pharmacia, Inc.; Franklin, Ohio) in TBS-PEG.
The assay was performed by pre-incubating the compound of formulae I and Ia plus enzyme for 10 min. Then the assay was initiated by adding substrate to obtain a final volume of 100 μl. The initial velocity of chromogenic substrate hydrolysis was measured by the change in absorbance at 405 nm using a Bio-tek Instruments kinetic plate reader (Ceres UV900HDi) at 25° C. during the linear portion of the time course (usually 1.5 min after addition of substrate). The enzyme concentration was 0.5 nM and substrate concentration was 140 μM.

T1 sequence (P00742 235-488 limits assumed): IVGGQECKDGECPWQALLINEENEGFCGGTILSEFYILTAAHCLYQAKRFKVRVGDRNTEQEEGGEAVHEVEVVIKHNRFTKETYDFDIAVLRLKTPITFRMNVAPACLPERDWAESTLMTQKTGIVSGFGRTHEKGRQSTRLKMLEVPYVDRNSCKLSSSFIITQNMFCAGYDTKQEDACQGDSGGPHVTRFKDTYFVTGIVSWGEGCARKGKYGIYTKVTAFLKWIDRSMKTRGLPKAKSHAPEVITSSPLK
T1 sequence (P00742 41-179 partner limits assumed): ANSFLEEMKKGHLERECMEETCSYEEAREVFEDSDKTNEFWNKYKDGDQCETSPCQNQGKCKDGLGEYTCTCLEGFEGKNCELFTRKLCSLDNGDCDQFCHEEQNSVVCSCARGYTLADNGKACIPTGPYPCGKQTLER

| Structure (SMILES) | Ki |
| --- | --- |
| CC(C)N1CCC(NC(=O)c2cccn2Cc2cc(-c3ccc(Cl)s3)on2)CC1 [Example 1, 1-[5-(5-Chloro-thiophen-2-yl)-isoxazol-3-ylmethyl]-1H-pyrrole-2-carboxylic acid (1-isopropyl-piperidin-4-yl)-amide] | 77 nM |
| CC(C)N1CCC(NC(=O)c2cc([N+](=O)[O-])cn2Cc2cc(-c3ccc(Cl)s3)on2)CC1 [Example 3, 1-[5-(5-Chloro-thiophen-2-yl)-isoxazol-3-ylmethyl]-4-nitro-1H-pyrrole-2-carboxylic acid (1-isopropyl-piperidin-4-yl)-amide] | 43 nM |
| Cc1cc(C)n(Cc2cc(-c3ccc(Cl)s3)on2)c1C(=O)NC1CCN(C(C)C)CC1 [Example 4, 1-[5-(5-Chloro-thiophen-2-yl)-isoxazol-3-ylmethyl]-3,5-dimethyl-1H-pyrrole-2-carboxylic acid (1-isopropyl-piperidin-4-yl)-amide] | 11 nM |
| CC(C)N1CCC(NC(=O)c2cc(C(=O)N3CCCOCC3)cn2CC(=O)Nc2ccc(Cl)cn2)CC1 [Example 5, 1-[(5-Chloro-pyridin-2-ylcarbamoyl)-methyl]-4-(perhydro-1,4-oxazepine-4-carbonyl)-1H-pyrrole-2-carboxylic acid (1-isopropyl-piperidin-4-yl)-amide] | 81 nM |
| CC(C)N1CCC(NC(=O)c2ccc(C(=O)N3CCCOCC3)n2Cc2cc(-c3ccc(Cl)s3)on2)CC1 [Example 7, 1-[5-(5-Chloro-thiophen-2-yl)-isoxazol-3-ylmethyl]-5-(perhydro-1,4-oxazepine-4-carbonyl)-1H-pyrrole-2-carboxylic acid (1-isopropyl-piperidin-4-yl)-amide] | 249 nM |
| Cc1c(CCC(=O)O)c(C)n(Cc2cc(-c3ccc(Cl)s3)on2)c1C(=O)NC1CCN(C(C)C)CC1 [Example 8, 3-[1-[5-(5-Chloro-thiophen-2-yl)-isoxazol-3-ylmethyl]-5-(1-isopropyl-piperidin-4-ylcarbamoyl)-2,4-dimethyl-1H-pyrrol-3-yl]-propionic acid] | 152 nM |
| COC(=O)c1ccc(C(=O)NC2CCN(C(C)C)CC2)n1Cc1cc(-c2ccc(Cl)s2)on1 [Example 10, 1-[5-(5-Chloro-thiophen-2-yl)-isoxazol-3-ylmethyl]-5-(1-isopropyl-piperidin-4-ylcarbamoyl)-1H-pyrrole-2-carboxylic acid methyl ester] | 7 nM |
| CC(C)N1CCC(NC(=O)c2ccc(C(=O)O)n2Cc2cc(-c3ccc(Cl)s3)on2)CC1 [Example 11, 1-[5-(5-Chloro-thiophen-2-yl)-isoxazol-3-ylmethyl]-5-(1-isopropyl-piperidin-4-ylcarbamoyl)-1H-pyrrole-2-carboxylic acid] | 294 nM |
| CC(C)N1CCC(NC(=O)c2cc(C(=O)OCc3ccccc3)n(CC(=O)Nc3ccc(Cl)cn3)c2)CC1 [Example 12, 1-[(5-Chloro-pyridin-2-ylcarbamoyl)-methyl]-4-(1-isopropyl-piperidin-4-ylcarbamoyl)-1H-pyrrole-2-carboxylic acid benzyl ester] | 34900 nM |
| COC(=O)c1cc(C(=O)NC2CCN(C(C)C)CC2)cn1CC(=O)Nc1ccc(Cl)cn1 [Example 15, 1-[(5-Chloro-pyridin-2-ylcarbamoyl)-methyl]-4-(1-isopropyl-piperidin-4-ylcarbamoyl)-1H-pyrrole-2-carboxylic acid methyl ester] | 41300 nM |
| COC(=O)c1cc(C(=O)NC2CCN(C(C)C)CC2)cn1Cc1cc(-c2ccc(Cl)s2)on1 [Example 16, 1-[5-(5-Chloro-thiophen-2-yl)-isoxazol-3-ylmethyl]-4-(1-isopropyl-piperidin-4-ylcarbamoyl)-1H-pyrrole-2-carboxylic acid methyl ester] | 1440 nM |
| CC(C)N1CCC(NC(=O)c2cc(C(=O)O)n(Cc3cc(-c4ccc(Cl)s4)on3)c2)CC1 [Example 17, 1-[5-(5-Chloro-thiophen-2-yl)-isoxazol-3-ylmethyl]-4-(1-isopropyl-piperidin-4-ylcarbamoyl)-1H-pyrrole-2-carboxylic acid] | 8990 nM |
| COCCNC(=O)c1ccc(C(=O)NC2CCN(C(C)C)CC2)n1Cc1cc(-c2ccc(Cl)s2)on1 [Example 19, 1-[5-(5-Chloro-thiophen-2-yl)-isoxazol-3-ylmethyl]-1H-pyrrole-2,5-di carboxylic acid 2-[(1-isopropyl-piperidin-4-yl)-amide] 5-[(2-methoxy-ethyl)-amide]] | 88 nM |
| COCCN(C)C(=O)c1ccc(C(=O)NC2CCN(C(C)C)CC2)n1Cc1cc(-c2ccc(Cl)s2)on1 [Example 20, 1-[5-(5-Chloro-thiophen-2-yl)-isoxazol-3-ylmethyl]-1H-pyrrole-2,5-dicarboxylic acid 2-[(1-isopropyl-piperidin-4-yl)-amide] 5-[(2-methoxy-ethyl)-methyl-amide]] | 57 nM |
| Cc1c(S(=O)(=O)N2CCCOCC2)c(C)n(Cc2cc(-c3ccc(Cl)s3)on2)c1C(=O)NC1CCN(C(C)C)CC1 [Example 22, 1-[5-(5-Chloro-thiophen-2-yl)-isoxazol-3-ylmethyl]-3,5-dimethyl-4-(perhydro-1,4-oxazepine-4-sulfonyl)-1H-pyrrole-2-carboxylic acid (1-isopropyl-piperidin-4-yl)-amide] | 112 nM |
| Cc1c(Br)c(C)n(CC(=O)Nc2ccc(Cl)cn2)c1C(=O)NC1CCN(C(C)C)CC1 [Example 24, 4-Bromo-1-[(5-chloro-pyridin-2-ylcarbamoyl)-methyl]-3,5-dimethyl-1H-pyrrole-2-carboxylic acid (1-isopropyl-piperidin-4-yl)-amide] | 11 nM |

Other lines, results leading:

| Ki | Structure (SMILES) |
| --- | --- |
| 8060 nM | COc1cccc(Cn2cccc2C(=O)NC2CCN(C(C)C)CC2)c1 [Example 2, 1-(3-Methoxy-benzyl)-1H-pyrrole-2-carboxylic acid (1-isopropyl-piperidin-4-yl)-amide] |
| 902 nM | CC(C)N1CCC(NC(=O)c2ccc(C(=O)N3CCCOCC3)n2CC(=O)Nc2ccc(Cl)cn2)CC1 [Example 6, 1-[(5-Chloro-pyridin-2-ylcarbamoyl)-methyl]-5-(perhydro-1,4-oxazepine-4-carbonyl)-1H-pyrrole-2-carboxylic acid (1-isopropyl-piperidin-4-yl)-amide] |
| 997 nM | CC(C)N1CCC(NC(=O)c2ccc(C(=O)OCc3ccccc3)n2Cc2cc(-c3ccc(Cl)s3)on2)CC1 [Example 9, 1-[5-(5-Chloro-thiophen-2-yl)-isoxazol-3-ylmethyl]-5-(1-isopropyl-piperidin-4-ylcarbamoyl)-1H-pyrrole-2-carboxylic acid benzyl ester] |
| 9580 nM | CC(C)N1CCC(NC(=O)c2cc(C(=O)OCc3ccccc3)n(Cc3cc(-c4ccc(Cl)s4)on3)c2)CC1 [Example 13, 1-[5-(5-Chloro-thiophen-2-yl)-isoxazol-3-ylmethyl]-4-(1-isopropyl-piperidin-4-ylcarbamoyl)-1H-pyrrole-2-carboxylic acid benzyl ester] |
| 59 nM | CC(C)N1CCC(NC(=O)c2cc([N+](=O)[O-])cn2CC(=O)Nc2ccc(Cl)cn2)CC1 [Example 14, 1-[(5-Chloro-pyridin-2-ylcarbamoyl)-methyl]-4-nitro-1H-pyrrole-2-carboxylic acid (1-isopropyl-piperidin-4-yl)-amide] |
| 5 nM | CC(C)N1CCC(NC(=O)c2ccc(-c3ccccc3)n2Cc2cc(-c3ccc(Cl)s3)on2)CC1 [Example 21, 1-[5-(5-Chloro-thiophen-2-yl)-isoxazol-3-ylmethyl]-5-phenyl-1H-pyrrole-2-carboxylic acid (1-isopropyl-piperidin-4-yl)-amide] |
| 5 nM | Cc1c(Br)c(C)n(Cc2cc(-c3ccc(Cl)s3)on2)c1C(=O)NC1CCN(C(C)C)CC1 [Example 23, 4-Bromo-1-[5-(5-chloro-thiophen-2-yl)-isoxazol-3-ylmethyl]-3,5-dimethyl-1H-pyrrole-2-carboxylic acid (1-isopropyl-piperidin-4-yl)-amide] |
| 24 nM | Cc1c(C=O)c(C)n(Cc2cc(-c3ccc(Cl)s3)on2)c1C(=O)NC1CCN(C(C)C)CC1 [Example 25, 1-[5-(5-Chloro-thiophen-2-yl)-isoxazol-3-ylmethyl]-4-formyl-3,5-dimethyl-1H-pyrrole-2-carboxylic acid (1-isopropyl-piperidin-4-yl)-amide] |

Source: patent US7465806B2, “Pyrrole-derivatives as factor Xa inhibitors” (SANOFI-AVENTIS Deutschland GmbH, priority 2004, dated 2008)
